Data: patent publication US8642656B2, “Calixarene-based peptide conformation mimetics, methods of use, and methods of making” (priority 2004, dated 2014)

Key:
[1] = test system: leukocytes in tumors of tumor bearing mice; assay: Leukocyte infiltration into tumors, anti-CD45 and anti-CD8 staining; assay type: in vivo; settings: compared with βpep-25; FIG. 4
Procedure: (§1) Female athymic nude mice (nu/nu, 5-6 weeks old) were used. These mice were purchased from the National Cancer Institute and allowed to acclimatize to local conditions for at least one week. Animals were given water and standard chow ad libitum, and were kept on a 12-hour light/dark cycle. All experiments were approved by the University of Minnesota Research Animal Resources ethical committee. Mice were randomized and split into three groups: 1) human serum albumin (10 mg/kg/day), 2) βpep-25 (10 mg/kg/day) and 3) peptide mimetic agent (5 mg or 10 mg/kg/day). Test compounds were diluted in DMSO and administered using osmotic mini-pumps (Durect, Cupertino, Calif.). Exponentially growing MA148 human ovarian carcinoma cells, kindly provided by Prof. Ramakrishnan (R. P. Dings et al., Cancer Res., 63, 382-385 (2003)) or B16 mouse melanoma cells were cultured in RPM1 1640 medium (Life Technologies, Grand Island, N.Y.). This medium was supplemented with 10% fetal bovine serum and 1% penicillin/streptomycin (Cellgro, Mediatech, Washington, D.C.) at 37° C and 5% CO2. […]
Similar size tumors without apparent widespread necrosis were embedded in tissue freezing medium (Miles Inc.; Elkart, Ind.) and snap frozen in liquid nitrogen. […] The vessel density and architecture was quantified as described earlier [Griffioen et al., Biochemical Journal 354, 233-242 (2001)]. […]

B16 melanoma = B16 melanoma tumor growth model in mice; assay type: in vivo; settings: tumor-bearing mice
Procedure: as §1, with “N.Y.).” for “N.Y.). This medium was supplemented with 10% fetal bovine serum and 1% penicillin/streptomycin (Cellgro, Mediatech, Washington, D.C.) at 37° C and 5% CO2.”
Tumor volume was determined by measuring the diameters of tumors using calipers (Scienceware, Pequannock, N.J.) using the equation for the volume of a spheroid: (a^2×b×[…])/6, where ‘a’ is the width and ‘b’ the length or the tumor. […] Tumor weights correlated well with tumor volumes calculated in this way. Statistical differences in tumor growth curves were analyzed using the two-way ANOVA test.

[2] = Hematocrit levels, first (MA148) study; assay type: in vivo, mice; settings: last day of treatment, vehicle 47±5.7
Procedure: As an indirect measurement of general toxicity, body weights of mice were monitored twice weekly, using a digital balance (Ohaus Florham, N.J.). To determine hematocrit levels, blood samples were extracted by tail vein bleedings one day after terminating treatment, and blood was collected in heparinized micro-hematocrit capillary lubes (Fisher Pittsburgh, Pa.). Samples were spun down for 10 minutes in a micro-hematocrit centrifuge (Clay-Adams; NY), and the amount of hematocrit was determined using an international microcapillary reader (IEC; Needham, Mass.).

B16F10 tumor = assay: TUNEL staining for total cell apoptosis, B16F10 tumors; assay type: in vivo, mice; settings: B16F10, 10 mg/kg; mean ± standard error, 20 images
Procedure: (§2) To assess the extent of total cell apoptosis, tumor tissue sections were stained by using the TUNEL (terminal deoxyribonucleotidyl transferase-mediated dUTP-nick-end labeling) assay, which was performed according to the manufacturer's instructions (In situ cell death detection kit, fluorescein; TUNEL, Roche). After 1-hour incubation at room temperature, slides were washed with PBS and immediately imaged using an Olympus BX-60 fluorescence microscope at 200× magnification.

MA148 tumor = assay: TUNEL staining for total cell apoptosis, MA148 tumors; assay type: in vivo, mice; settings: mean ± standard error, 20 images
Procedure: as §2

Compound | leukocyte infiltration into tumors (in words) [1] | B16 tumor growth (in words) (B16 melanoma) | Hematocrit levels ±SD ([2]; 2.4 mg/kg) | Hematocrit levels ±SD ([2]; 10 mg/kg) | Apoptosis (B16F10 tumor) | Apoptosis (MA148 tumor; MA148, 2.4 mg/kg) | Apoptosis (MA148 tumor; MA148, 10 mg/kg) | Hematocrit levels ±SD ([2]; 2.7 mg/kg) | Apoptosis (MA148 tumor; MA148, 2.7 mg/kg)
CN(C)CCNC(=O)COc1c2cccc1Cc1cccc(c1OCC(=O)NCCN(C)C)Cc1cccc(c1OCC(=O)NCCN(C)C)Cc1cccc(c1OCC(=O)NCCN(C)C)C2 [Compound 40] | clearly more effective at increasing leukocyte infiltration into tumors than βpep-25 | significantly inhibited | 50±1.4 percentage of red blood cells | 49.5±2.1 percentage of red blood cells | 2807 ± 140 pixel counts per image | 2919 ± 144 pixel counts per image | 2323 ± 171 pixel counts per image | – | –
5,11,17,23-Tetra-tert-butyl-25,27-bis(2-guanidinoethoxy)-26,28-dihydroxy calix[4]arene trifluoroacetic acid salt [Compound 27] | clearly more effective at increasing leukocyte infiltration into tumors than βpep-25 | significantly inhibited | – | 47±4.2 percentage of red blood cells | 2357 ± 103 pixel counts per image | – | 2333 ± 173 pixel counts per image | 46.5±0.7 percentage of red blood cells | 2418 ± 72 pixel counts per image
